Source: ChEMBL document CHEMBL5518187, “EGCG-like non-competitive inhibitor of DYRK1A rescues cognitive defect in a down syndrome model” (Eur J Med Chem, 2024)
Values belong to the molecule of their own block, whether it stands above or below them. Calls of active or inactive are those of the source. The rule behind the calls is not given here.

Experiments:
[1] = biological target: Dual specificity tyrosine-phosphorylation-regulated kinase 1A (Homo sapiens, UniProt Q13627); assay: Inhibition of DYRK1A (unknown origin) using KISGRLSPIMTEQ as substrate incubated for 30 mins in presence of ATP by UFLC-based fluorimetric analysis
[2] = biological target: Dual specificity tyrosine-phosphorylation-regulated kinase 1A (Rattus norvegicus, UniProt Q63470); assay: Inhibition of recombinant 6His-tagged rat DYRK1A (1 to 502 residues) expressed in Escherichia coli BL21 (DE3) cells using KISGRLSPIMTEQ as substrate incubated for 30 mins in presence of ATP by absorbance based assay
Mus musculus [3] = assay: Cognitive enhancing effect in Dp1Yey C57BL/6J mouse model assessed as increase in percentage of spontaneous alternation at 40 mg/kg, po administered 5 days per week for 2 months by Y-maze test; type: functional, organism-based
Mus musculus [4] = assay: Effect on spatial working memory in Dp1Yey C57BL/6J mouse model assessed as reduction in time spent in center at 40 mg/kg, po administered 5 days per week for 2 months by Y-maze test; type: functional, organism-based
[5] = biological target: Tyrosine-protein kinase Fyn (Homo sapiens) (UniProt P06241); assay: Inhibition of FYN (unknown origin) at 0.5 uM
Mus musculus [6] = assay: In vivo inhibition of DYRK1A in C57BL/6J mouse model carrying murine BACtgDyrk1a assessed as decrease in phosphorylated ERK to ERK ratio in brain administered intraperitoneally and measured after 24 hrs; type: functional; conditions: route ip
[7] = Drug concentration in brain of Dp1Yey C57BL/6J mouse model at 50 mg/kg by UHPLC-MS/MS analysis; type: ADME, organism-based; conditions: in vivo, read-out: Ct
Homo sapiens = organism: Homo sapiens; assay: Inhibition of PI3K (unknown origin) at 0.5 uM
Mus musculus [8] = assay: Effect on spatial working memory in Dp1Yey C57BL/6J mouse model assessed as reduction in total distance travelled at 40 mg/kg, po administered 5 days per week for 2 months by Y-maze test; type: functional, organism-based
[9] = biological target: Glycogen synthase kinase-3 beta (Homo sapiens) (UniProt P49841); assay: Inhibition of GSK3beta (unknown origin) at 0.5 uM
[10] = biological target: Mitogen-activated protein kinase 1 (Homo sapiens) (UniProt P28482); assay: Inhibition of ERK2 (unknown origin) at 0.5 uM
[11] = Drug concentration in wildtype mouse brain at 50 mg/kg by UHPLC-MS/MS analysis; type: ADME, organism-based; conditions: in vivo, read-out: Ct
[12] = Stability in human plasma at 1 uM incubated for 120 mins by LC-MS/MS analysis; type: ADME, cell-free; conditions: 2 h
[13] = biological target: Mitogen-activated protein kinase 3 (Homo sapiens) (UniProt P27361); assay: Inhibition of ERK1 (unknown origin) at 0.5 uM
Mus musculus [14] = assay: Effect on spatial working memory in Dp1Yey C57BL/6J mouse model assessed as reduction in mean speed at 40 mg/kg, po administered 5 days per week for 2 months by Y-maze test; type: functional, organism-based

Sequence of Mitogen-activated protein kinase 1 (Homo sapiens) (P28482 whole entry): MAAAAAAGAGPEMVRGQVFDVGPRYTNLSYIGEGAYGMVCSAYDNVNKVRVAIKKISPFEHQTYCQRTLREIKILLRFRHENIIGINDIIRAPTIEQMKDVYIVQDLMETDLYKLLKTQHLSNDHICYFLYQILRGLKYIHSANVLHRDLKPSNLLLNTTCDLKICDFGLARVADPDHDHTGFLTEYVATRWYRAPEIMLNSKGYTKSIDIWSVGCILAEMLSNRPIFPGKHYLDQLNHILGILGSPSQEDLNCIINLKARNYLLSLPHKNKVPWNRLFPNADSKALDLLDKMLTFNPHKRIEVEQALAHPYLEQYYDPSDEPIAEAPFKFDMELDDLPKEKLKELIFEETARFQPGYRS
Sequence of Mitogen-activated protein kinase 3 (Homo sapiens) (P27361 whole entry): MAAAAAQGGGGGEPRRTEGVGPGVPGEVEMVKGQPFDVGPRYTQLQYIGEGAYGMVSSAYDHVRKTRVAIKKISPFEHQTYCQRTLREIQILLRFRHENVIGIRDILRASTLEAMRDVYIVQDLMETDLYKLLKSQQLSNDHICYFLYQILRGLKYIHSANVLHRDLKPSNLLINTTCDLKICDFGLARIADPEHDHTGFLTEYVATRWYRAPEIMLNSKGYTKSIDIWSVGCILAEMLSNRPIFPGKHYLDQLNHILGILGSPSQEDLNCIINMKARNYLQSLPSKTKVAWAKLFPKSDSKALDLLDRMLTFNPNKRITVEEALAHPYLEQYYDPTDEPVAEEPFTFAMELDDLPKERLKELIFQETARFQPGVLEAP
Sequence of Glycogen synthase kinase-3 beta (Homo sapiens) (P49841 whole entry, looked up): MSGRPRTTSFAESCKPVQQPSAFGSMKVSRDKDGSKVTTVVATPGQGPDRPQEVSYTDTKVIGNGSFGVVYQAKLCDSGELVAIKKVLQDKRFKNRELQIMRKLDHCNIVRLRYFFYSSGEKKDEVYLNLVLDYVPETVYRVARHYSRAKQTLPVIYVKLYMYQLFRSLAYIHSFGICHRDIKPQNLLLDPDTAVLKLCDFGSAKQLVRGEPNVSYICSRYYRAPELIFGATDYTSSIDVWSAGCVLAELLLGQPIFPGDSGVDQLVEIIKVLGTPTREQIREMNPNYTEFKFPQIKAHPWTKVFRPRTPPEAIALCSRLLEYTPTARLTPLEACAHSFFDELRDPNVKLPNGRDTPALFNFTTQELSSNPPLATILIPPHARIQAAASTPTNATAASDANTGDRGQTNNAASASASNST
Sequence of Tyrosine-protein kinase Fyn (Homo sapiens) (P06241 2-537 limits assumed): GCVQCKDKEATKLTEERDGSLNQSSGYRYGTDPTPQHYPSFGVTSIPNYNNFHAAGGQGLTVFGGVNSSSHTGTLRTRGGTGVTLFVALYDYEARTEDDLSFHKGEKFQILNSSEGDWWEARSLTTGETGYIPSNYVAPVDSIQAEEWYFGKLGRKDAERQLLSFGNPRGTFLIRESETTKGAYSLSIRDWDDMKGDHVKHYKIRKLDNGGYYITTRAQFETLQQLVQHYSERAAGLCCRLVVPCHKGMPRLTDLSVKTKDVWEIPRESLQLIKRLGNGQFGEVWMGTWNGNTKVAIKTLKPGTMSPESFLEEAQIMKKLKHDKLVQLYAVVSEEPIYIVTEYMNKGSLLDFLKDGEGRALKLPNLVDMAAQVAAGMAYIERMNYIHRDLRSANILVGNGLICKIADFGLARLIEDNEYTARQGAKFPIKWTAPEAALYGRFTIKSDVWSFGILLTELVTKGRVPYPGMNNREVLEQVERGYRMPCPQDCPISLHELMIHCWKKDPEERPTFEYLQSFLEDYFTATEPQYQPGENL

IC50 [1]: > 20 µM
Structure (SMILES): O=C(c1ccc(O)cc1)N1Cc2c(O)cc(O)cc2CC1C1CCCCC1 (stereo not given)

IC50 [1]: > 20 µM
Structure (SMILES): Oc1cc(O)c2c(c1)CC(c1ccccc1)NC2 (stereo not given)

IC50 [2]: 0.02 µM
Structure (SMILES): Oc1ccc(-c2cnc3[nH]cc(-c4ccc(F)cc4)c3c2)cc1O

IC50 [1]: > 20 µM
Structure (SMILES): COc1ccc(C(=O)N2Cc3c(cc(OC)cc3OC)CC2C2CCCCC2)cc1 (stereo not given)

IC50 [1]: > 20 µM
Structure (SMILES): COc1cc2c(c(OC)c1)CN(C(=O)c1ccccc1)C(c1cc(OC)c(OC)c(OC)c1)C2 (stereo not given)

IC50 [1]: > 20 µM
Structure (SMILES): COc1cc2c(c(OC)c1)CN(C(=O)c1ccccc1)C(C1CCCCC1)C2 (stereo not given)

IC50 [1]: > 20 µM
Structure (SMILES): O=C(c1ccccc1)N1Cc2c(O)cc(O)cc2CC1C1CCCCC1 (stereo not given)

More lines, now with the values behind:

Structure (SMILES): COc1cccc(C(=O)N2Cc3c(cc(OC)cc3OC)CC2c2cc(OC)c(OC)c(OC)c2)c1 (stereo not given)
IC50 [1]: > 20 µM

Structure (SMILES): COc1cc2c(c(OC)c1)CNC(C1CCCCC1)C2 (stereo not given)
IC50 [1]: > 20 µM

Structure (SMILES): COc1cc2c(c(OC)c1)CNC(c1ccccc1)C2 (stereo not given)
IC50 [1]: > 20 µM

Structure (SMILES): O=C(O[C@@H]1Cc2c(O)cc(O)cc2O[C@@H]1c1cc(O)c(O)c(O)c1)c1cc(O)c(O)c(O)c1 [EPIGALOCATECHIN GALLATE]
IC50 [1]: 0.2 µM

Structure (SMILES): O=C(c1cc(O)c(O)c(O)c1)N1Cc2c(O)cc(O)cc2CC1c1cc(O)c(O)c(O)c1 (stereo not given)
Activity (Mus musculus [3]): Active | Activity (Mus musculus [4]): inactive | inhibition [5]: Active | inhibition (Mus musculus [6]): Active | concentration [7]: 27.6 nM | inhibition (Homo sapiens): Active | Activity (Mus musculus [8]): inactive | inhibition [9]: inactive | inhibition [10]: inactive | concentration [11]: 38.2 nM | Stability [12]: Stable | inhibition [13]: inactive | Activity (Mus musculus [14]): inactive

Structure (SMILES): Oc1cc(O)c2c(c1)CC(C1CCCCC1)NC2 (stereo not given)
IC50 [1]: > 20 µM
